From PubChem BioAssay AID1963865 (Molecular Pharmacology Branch, DTP, NCI, 2024)
pIC50: −log10 of the molar value.

System: KRAS PDC multicell spheroid viability
Assay: Anticancer human tumor 825966-067-R-J1-PDC patient-derived colon carcinoma cell line growth inhibition [KRAS2]
Conditions: for pIC50: curve of first compound; for viability, T/C: stronger effect = lower value
Outline: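 KRAS-mutant tumor cells were grown as spheroids with HUVEC endothelial cells and human MSCs as stroma. Targeted agents were tested alone and with KRAS pathway inhibitors. Doses started at or near clinical Cmax, or 10 microM, descending half-log.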

[1] = second compound 0.0316 µM, first compound 0.0316 µM
[2] = second compound 0.1 µM, first compound 0.0316 µM
[3] = second compound 0.316 µM, first compound 0.0316 µM
[4] = second compound 1 µM, first compound 0.0316 µM
[5] = second compound 3.16 µM, first compound 0.0316 µM
[6] = second compound 0.1 µM, first compound 0.1 µM
[7] = second compound 0.1 µM, first compound 0.316 µM
[8] = second compound 0.1 µM, first compound 1 µM
[9] = second compound 0.1 µM, first compound 3.16 µM
[10] = second compound 0.1 µM, first compound 10 µM
[11] = second compound 0.316 µM, first compound 0.1 µM
[12] = second compound 0.316 µM, first compound 0.316 µM
[13] = second compound 0.316 µM, first compound 1 µM
[14] = second compound 0.316 µM, first compound 3.16 µM
[15] = second compound 0.316 µM, first compound 10 µM
[16] = second compound 1 µM, first compound 0.1 µM
[17] = second compound 1 µM, first compound 0.316 µM
[18] = second compound 1 µM, first compound 1 µM
[19] = second compound 1 µM, first compound 3.16 µM
[20] = second compound 1 µM, first compound 10 µM
[21] = second compound 3.16 µM, first compound 0.1 µM
[22] = second compound 3.16 µM, first compound 0.316 µM
[23] = second compound 3.16 µM, first compound 1 µM
[24] = second compound 3.16 µM, first compound 3.16 µM
[25] = second compound 3.16 µM, first compound 10 µM
[26] = second compound 10 µM, first compound 0.0316 µM
[27] = second compound 10 µM, first compound 0.1 µM
[28] = second compound 10 µM, first compound 0.316 µM
[29] = second compound 10 µM, first compound 1 µM
[30] = second compound 10 µM, first compound 3.16 µM
[31] = second compound 10 µM, first compound 10 µM
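Note: spheroids exposed to compounds for 7 days.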
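Throughout, for viability, T/C: 100% = DMSO vehicle control viability.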

`CC(=O)Nc1cccc(-n2c(=O)n(C3CC3)c(=O)c3c(Nc4ccc(I)cc4F)n(C)c(=O)c(C)c32)c1` + C=CC(=O)N1CCN(c2nc(OCC3CCCN3C)nc3c2CCN(c2cccc4cccc(C)c24)C3)CC1CC#N showed a pIC50 (second compound 0.0316 µM) of 7.50, a pIC50 (second compound 0.1 µM) of under 7.50 and a pIC50 (second compound 0.316 µM) of 7.64. For the same compound, the pIC50 (second compound 1 µM) was under 7.50, the pIC50 (second compound 3.16 µM) was 8.22 and the viability, T/C (second compound 0.0316 µM, first compound 0.0001 µM) was 92%. For the same compound, the viability, T/C (second compound 0.0316 µM, first compound 0.000316 µM) was 94.8%, the viability, T/C (second compound 0.0316 µM, first compound 0.001 µM) was 119% and the viability, T/C (second compound 0.0316 µM, first compound 0.00316 µM) was 128%. For the same compound, the viability, T/C (second compound 0.0316 µM, first compound 0.01 µM) was 101%, the viability, T/C [1] was 49.8% and the viability, T/C (second compound 0.1 µM, first compound 0.0001 µM) was 84%. It also gave a viability, T/C (second compound 0.1 µM, first compound 0.000316 µM) of 92.6%, a viability, T/C (second compound 0.1 µM, first compound 0.001 µM) of 97.5% and a viability, T/C (second compound 0.1 µM, first compound 0.00316 µM) of 111%. It also gave a viability, T/C (second compound 0.1 µM, first compound 0.01 µM) of 94.9%, a viability, T/C [2] of 50.5% and a viability, T/C (second compound 0.316 µM, first compound 0.0001 µM) of 83.6%. It also gave a viability, T/C (second compound 0.316 µM, first compound 0.000316 µM) of 92.1%, a viability, T/C (second compound 0.316 µM, first compound 0.001 µM) of 96.7% and a viability, T/C (second compound 0.316 µM, first compound 0.00316 µM) of 110%. It also gave a viability, T/C (second compound 0.316 µM, first compound 0.01 µM) of 92.1%, a viability, T/C [3] of 33.9% and a viability, T/C (second compound 1 µM, first compound 0.0001 µM) of 110%. It also gave a viability, T/C (second compound 1 µM, first compound 0.000316 µM) of 95%, a viability, T/C (second compound 1 µM, first compound 0.001 µM) of 102% and a viability, T/C (second compound 1 µM, first compound 0.00316 µM) of 106%. For the same compound, the viability, T/C (second compound 1 µM, first compound 0.01 µM) was 71.4%, the viability, T/C [4] was 53.4% and the viability, T/C (second compound 3.16 µM, first compound 0.0001 µM) was 62.2%. It also gave a viability, T/C (second compound 3.16 µM, first compound 0.000316 µM) of 107%, a viability, T/C (second compound 3.16 µM, first compound 0.001 µM) of 105% and a viability, T/C (second compound 3.16 µM, first compound 0.00316 µM) of 121%. The viability, T/C (second compound 3.16 µM, first compound 0.01 µM) was 5.74% and the viability, T/C [5] was 16.1%.
`Cn1nccc1Nc1nccc(-c2cc3c(s2)C(C)(C)N(CCN2CCOCC2)C3=O)n1` + CC1OCC2(CCN(c3cnc(Sc4ccnc(N)c4Cl)c(N)n3)CC2)C1N gave a pIC50 (second compound 0.1 µM) of under 5.00, a pIC50 (second compound 0.316 µM) of under 5.00 and a pIC50 (second compound 1 µM) of under 5.00. It also gave a pIC50 (second compound 3.16 µM) of under 5.00, a pIC50 (second compound 10 µM) of 7.07 and a viability, T/C [2] of 125%. For the same compound, the viability, T/C [6] was 97.3%, the viability, T/C [7] was 128% and the viability, T/C [8] was 95.8%. For the same compound, the viability, T/C [9] was 104%, the viability, T/C [10] was 68.5% and the viability, T/C [3] was 88.8%. The viability, T/C [11] was 124%, the viability, T/C [12] was 131% and the viability, T/C [13] was 104%. The viability, T/C [14] was 87.4%, the viability, T/C [15] was 77.3% and the viability, T/C [4] was 93%. For the same compound, the viability, T/C [16] was 115%, the viability, T/C [17] was 106% and the viability, T/C [18] was 81.9%. It also gave a viability, T/C [19] of 89.2%, a viability, T/C [20] of 63.3% and a viability, T/C [5] of 107%. The viability, T/C [21] was 130%, the viability, T/C [22] was 92.3% and the viability, T/C [23] was 56.6%. For the same compound, the viability, T/C [24] was 59%, the viability, T/C [25] was 77% and the viability, T/C [26] was 80.4%. For the same compound, the viability, T/C [27] was 45%, the viability, T/C [28] was 14.4% and the viability, T/C [29] was 6.71%. For the same compound, the viability, T/C [30] was 12.1% and the viability, T/C [31] was 43.9%.
Work on `Cn1nccc1Nc1nccc(-c2cc3c(s2)C(C)(C)N(CCN2CCOCC2)C3=O)n1` + C=CC(=O)N1CCN(c2nc(OCC3CCCN3C)nc3c2CCN(c2cccc4cccc(C)c24)C3)CC1CC#N yielded a pIC50 (second compound 0.0316 µM) of under 5.00, a pIC50 (second compound 0.1 µM) of under 5.00 and a pIC50 (second compound 0.316 µM) of under 5.00. For the same compound, the pIC50 (second compound 1 µM) was under 5.00, the pIC50 (second compound 3.16 µM) was 6.17 and the viability, T/C [1] was 108%. It also gave a viability, T/C (second compound 0.0316 µM, first compound 0.1 µM) of 91.1%, a viability, T/C (second compound 0.0316 µM, first compound 0.316 µM) of 121% and a viability, T/C (second compound 0.0316 µM, first compound 1 µM) of 108%. The viability, T/C (second compound 0.0316 µM, first compound 3.16 µM) was 95.3%, the viability, T/C (second compound 0.0316 µM, first compound 10 µM) was 68.5% and the viability, T/C [2] was 84%. The viability, T/C [6] was 91.6%, the viability, T/C [7] was 106% and the viability, T/C [8] was 100%. The viability, T/C [9] was 73.4%, the viability, T/C [10] was 79.8% and the viability, T/C [3] was 72.2%. It also gave a viability, T/C [11] of 110%, a viability, T/C [12] of 125% and a viability, T/C [13] of 93.7%. The viability, T/C [14] was 75.9%, the viability, T/C [15] was 61.2% and the viability, T/C [4] was 85.9%. For the same compound, the viability, T/C [16] was 96.1%, the viability, T/C [17] was 127% and the viability, T/C [18] was 96%. It also gave a viability, T/C [19] of 64.8%, a viability, T/C [20] of 56.4% and a viability, T/C [5] of 84.9%. For the same compound, the viability, T/C [21] was 76.4%, the viability, T/C [22] was 104% and the viability, T/C [23] was 4.64%. The viability, T/C [24] was 27.8% and the viability, T/C [25] was 57.8%.
Compound `COc1cc(Nc2ncc3c(n2)-c2ccc(Cl)cc2C(c2c(F)cccc2OC)=NC3)ccc1C(=O)O` + C=CC(=O)N1CCN(c2nc(=O)n(-c3c(C)ccnc3C(C)C)c3nc(-c4c(O)cccc4F)c(F)cc23)C(C)C1 has a pIC50 (second compound 0.1 µM) of under 5.00, a pIC50 (second compound 0.316 µM) of under 5.00 and a pIC50 (second compound 1 µM) of under 5.00. The pIC50 (second compound 3.16 µM) was under 5.00, the pIC50 (second compound 10 µM) was under 5.00 and the viability, T/C [2] was 144%. For the same compound, the viability, T/C [6] was 117%, the viability, T/C [7] was 141% and the viability, T/C [8] was 140%. It also gave a viability, T/C [9] of 138%, a viability, T/C [10] of 133% and a viability, T/C [3] of 116%. The viability, T/C [11] was 107%, the viability, T/C [12] was 135% and the viability, T/C [13] was 140%. For the same compound, the viability, T/C [14] was 154%, the viability, T/C [15] was 134% and the viability, T/C [4] was 88.9%. The viability, T/C [16] was 107%, the viability, T/C [17] was 96% and the viability, T/C [18] was 127%. For the same compound, the viability, T/C [19] was 123%, the viability, T/C [20] was 118% and the viability, T/C [5] was 104%. It also gave a viability, T/C [21] of 93.5%, a viability, T/C [22] of 142% and a viability, T/C [23] of 118%. The viability, T/C [24] was 144%, the viability, T/C [25] was 103% and the viability, T/C [26] was 83.3%. The viability, T/C [27] was 66%, the viability, T/C [28] was 97.7% and the viability, T/C [29] was 79.5%. The viability, T/C [30] was 116% and the viability, T/C [31] was 90.5%.
